The test system of test [1] is monkey MET (fasMET-His). The test is described as follows: SPR binding activity of anti-EGFR/MET bispecific antibodies to fasMET-His. The following applies: Table 15. The text has this:
(§1) Dissociation was monitored for 400 seconds.
(SPR reads the build-up and loss of mass on a sensor chip optically.)

The test system of another test is SNU-5 cells. In words: Internalization (endocytosis) in SNU-5 cells, pHAb secondary antibody, flow cytometry. The following applies: 2.5 μg/ml, 1 hour. Type of test: cell-based, human. The procedure: Anti-EGFR antibodies (2.5 μg/ml) and pHAb-Goat Anti-Human IgG secondary antibody (Promega (Beijing) Biotech Co., Ltd., Cat #: G9845) were added to SNU-5 cells (ATCC, Reference No.: CRL-5973). After incubating at 37° C. and 5% CO2 for 1 hour, the cells were centrifuged and washed with FACS buffer. The mean fluorescence intensity (MFI) values were measured using a flow cytometer, and the endocytosis rates of the anti-EGFR antibodies were calculated.
Anti-MET antibodies ([…]) and pHAb-GoatAnti-Human IgG Antibody (Promega (Beijing) Biotech Co., Ltd., Cat #: G9845) were added to SUN-5 cells. After incubating for 1 hour, the cells were centrifuged and washed with FACS buffer. The MFI values were measured using a flow cytometer, and the endocytosis rates of the anti-MET antibodies were calculated.
The secondary antibody used in the experiment was: pHAb-AffiniPure Fab Fragment Goat Anti-Human IgG (Jackson Immuno Research, Cat #: 109-007-008).

The target of test [2] is T1, human MET (hMET-His) (Homo sapiens, UniProt P08581).
T1 construct: His; purchased ACROBiosystems Inc. MET-H5227
In words: SPR binding activity of anti-EGFR/MET bispecific antibodies to hMET-His. The following applies: Table 15.
Text: as §1

The target in a further test is human EGFR (hEGFR-His) (Homo sapiens, UniProt P00533). The test is described as follows: SPR binding activity of anti-EGFR/MET bispecific antibodies to hEGFR-His. The following applies: Table 15.
For test [3], the target named is T1, human MET (hMET-His). The test is described as follows: SPR binding affinity of anti-MET antibodies to hMET-His. The text has this: (§2) In another similar experiment, the binding affinity of anti-MET antibodies M-6D12, M-6E6, M-7D3, M-819, M-8E2 and M-8H10 to hMET-His, fasMET-His or dMET-His (His-tagged dog MET, Sino, Cat #:70008-D08H) was verified. Telisotuzumab analog was used as a positive control.

The target of another test is T2, dog MET (dMET-His) (Canis lupus familiaris, UniProt Q75ZY9).
T2 construct: His; purchased Sino 70008-D08H
In words: SPR binding affinity of anti-MET antibodies to dMET-His.
Text: as §2

For test [4], the target named is monkey EGFR (fasEGFR-His). In words: SPR binding activity of anti-EGFR/MET bispecific antibodies to fasEGFR-His. The following applies: Table 15.
Text: as §1

In another test the test system is HCC827 cells. In words: Internalization of antibodies targeting EGFR and/or MET in HCC827 cells. Format: cell-based, human. The following applies: HCC827, 1 hour. The procedure:
(§3) Anti-EGFR antibodies, anti-MET antibodies, or anti-EGFR/MET bispecific antibodies, together with the pHAb-Goat anti-human IgG secondary antibody were added to NCI-H1975 cells (ATCC, Reference No.: CRL-5908), HCC827 cells (ATCC, Reference No.: CRL-2868) and NCI-H292 (ATCC, Reference No.: CRL-1848) cells, respectively, and incubated for 1 hour. The cells were centrifuged and washed with FACS buffer. MFI was measured using a flow cytometer. Endocytosis rates of antibodies were calculated. For isotype control (ISO), an antibody targeting an irrelevant target protein was used.

Another test relates to NCI-H292 cells. In words: Internalization of antibodies targeting EGFR and/or MET in NCI-H292 cells. Type of test: cell-based, human. The following applies: NCI-H292, 1 hour. The procedure:
as §3

For test [5], the system named is monkey MET (fasMET-His). In words: SPR binding affinity of anti-MET antibodies to fasMET-His.
Text: as §2

monkey MET (fasMET-His), sequence (as listed by the source): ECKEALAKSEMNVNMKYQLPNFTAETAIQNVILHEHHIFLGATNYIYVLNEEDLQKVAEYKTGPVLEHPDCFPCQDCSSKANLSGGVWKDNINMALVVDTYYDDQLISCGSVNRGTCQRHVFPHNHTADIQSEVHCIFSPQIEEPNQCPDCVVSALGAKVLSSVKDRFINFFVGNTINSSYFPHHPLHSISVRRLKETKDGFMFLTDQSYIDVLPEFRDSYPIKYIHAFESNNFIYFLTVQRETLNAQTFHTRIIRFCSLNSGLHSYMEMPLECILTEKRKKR
monkey MET (fasMET-His), sequence (as listed by the source): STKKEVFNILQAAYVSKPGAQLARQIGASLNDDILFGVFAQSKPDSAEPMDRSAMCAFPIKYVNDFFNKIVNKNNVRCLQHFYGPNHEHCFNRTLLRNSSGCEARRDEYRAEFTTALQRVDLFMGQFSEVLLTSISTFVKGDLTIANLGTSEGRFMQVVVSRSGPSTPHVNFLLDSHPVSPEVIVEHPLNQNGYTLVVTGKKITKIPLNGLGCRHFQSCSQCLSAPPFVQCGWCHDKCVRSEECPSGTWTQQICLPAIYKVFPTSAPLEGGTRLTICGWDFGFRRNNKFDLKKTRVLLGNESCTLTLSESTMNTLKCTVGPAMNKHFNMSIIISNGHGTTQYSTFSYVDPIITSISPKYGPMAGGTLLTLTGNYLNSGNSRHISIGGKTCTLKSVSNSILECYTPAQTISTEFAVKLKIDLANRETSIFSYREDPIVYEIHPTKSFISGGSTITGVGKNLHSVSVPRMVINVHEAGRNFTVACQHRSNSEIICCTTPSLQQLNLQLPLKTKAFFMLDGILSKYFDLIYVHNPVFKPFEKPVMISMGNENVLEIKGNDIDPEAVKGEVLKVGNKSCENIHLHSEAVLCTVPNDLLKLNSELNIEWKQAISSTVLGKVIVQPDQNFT
T1 sequence (P08581 25-932 limits assumed): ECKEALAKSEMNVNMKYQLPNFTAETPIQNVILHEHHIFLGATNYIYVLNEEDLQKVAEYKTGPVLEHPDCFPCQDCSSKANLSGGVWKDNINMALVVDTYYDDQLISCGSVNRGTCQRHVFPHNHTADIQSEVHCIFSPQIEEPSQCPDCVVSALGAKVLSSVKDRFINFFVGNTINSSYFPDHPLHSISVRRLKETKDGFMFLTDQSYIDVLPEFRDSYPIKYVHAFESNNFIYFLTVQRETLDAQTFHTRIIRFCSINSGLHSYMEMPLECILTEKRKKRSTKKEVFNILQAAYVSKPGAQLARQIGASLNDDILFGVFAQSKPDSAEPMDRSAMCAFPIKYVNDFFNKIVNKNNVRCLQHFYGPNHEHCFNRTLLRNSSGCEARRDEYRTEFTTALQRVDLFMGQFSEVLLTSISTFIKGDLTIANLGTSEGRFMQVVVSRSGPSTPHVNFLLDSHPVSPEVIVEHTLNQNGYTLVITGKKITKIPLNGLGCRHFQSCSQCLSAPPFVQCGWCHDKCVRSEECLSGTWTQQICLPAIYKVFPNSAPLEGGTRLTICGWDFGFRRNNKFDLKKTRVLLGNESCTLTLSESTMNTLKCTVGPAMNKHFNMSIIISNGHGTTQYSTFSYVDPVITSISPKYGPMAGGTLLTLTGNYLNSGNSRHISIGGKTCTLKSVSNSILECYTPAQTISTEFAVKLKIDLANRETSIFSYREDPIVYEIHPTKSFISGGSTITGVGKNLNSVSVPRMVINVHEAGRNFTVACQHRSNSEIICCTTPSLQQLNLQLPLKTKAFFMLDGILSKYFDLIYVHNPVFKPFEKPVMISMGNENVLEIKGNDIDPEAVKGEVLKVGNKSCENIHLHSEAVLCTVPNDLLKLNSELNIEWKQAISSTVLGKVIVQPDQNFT
T2 sequence (Q75ZY9 25-933 limits assumed): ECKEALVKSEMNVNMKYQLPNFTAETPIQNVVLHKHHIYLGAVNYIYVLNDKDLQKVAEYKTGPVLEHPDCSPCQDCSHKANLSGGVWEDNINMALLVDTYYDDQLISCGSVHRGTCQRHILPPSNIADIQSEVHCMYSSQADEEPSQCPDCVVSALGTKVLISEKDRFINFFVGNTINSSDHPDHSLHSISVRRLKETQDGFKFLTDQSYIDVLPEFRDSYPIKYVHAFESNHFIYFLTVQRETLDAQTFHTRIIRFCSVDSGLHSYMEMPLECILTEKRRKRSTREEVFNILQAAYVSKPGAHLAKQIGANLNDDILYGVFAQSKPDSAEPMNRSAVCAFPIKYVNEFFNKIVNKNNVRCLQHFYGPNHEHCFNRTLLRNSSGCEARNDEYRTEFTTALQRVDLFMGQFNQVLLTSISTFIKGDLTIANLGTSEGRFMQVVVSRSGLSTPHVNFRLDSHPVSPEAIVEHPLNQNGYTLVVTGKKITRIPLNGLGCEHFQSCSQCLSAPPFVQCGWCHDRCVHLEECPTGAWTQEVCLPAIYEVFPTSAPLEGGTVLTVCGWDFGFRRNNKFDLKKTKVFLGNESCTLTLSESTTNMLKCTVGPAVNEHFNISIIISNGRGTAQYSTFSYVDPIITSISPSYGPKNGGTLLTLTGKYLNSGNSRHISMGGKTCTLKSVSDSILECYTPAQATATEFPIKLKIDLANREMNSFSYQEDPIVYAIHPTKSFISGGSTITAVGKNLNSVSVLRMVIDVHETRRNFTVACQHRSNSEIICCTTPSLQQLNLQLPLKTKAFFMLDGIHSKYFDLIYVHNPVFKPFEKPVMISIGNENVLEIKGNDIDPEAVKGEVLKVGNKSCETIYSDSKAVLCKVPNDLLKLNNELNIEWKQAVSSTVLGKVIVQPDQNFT

For “Telisotuzumab analog: analog of Telisotuzumab, humanized IgG1 monoclonal antibody targeting MET; SEQ ID NO: 75 and 76 [reference compound]”, the koff (usually the first-order rate constant of dissociation) with monkey MET (fasMET-His) [1] came out at 9.41e-05 s⁻¹; with human MET (hMET-His) [2], 0.0001 s⁻¹. The kon (usually a measure of how fast the partners come together) in the test with monkey MET (fasMET-His) [1] stood at 62600 M⁻¹ s⁻¹; with human MET (hMET-His) [2] it was 103000 M⁻¹ s⁻¹. Also, the MFI worked out at 21700 with SNU-5 cells, 10344 in the test on HCC827 cells and 6969 in the test on NCI-H292 cells. Moreover, in the test on SNU-5 cells, the “Percentage of Positive (endocytosis)” value was found to be 36.9%. For the same substance, the KD entry (with human EGFR (hEGFR-His); in test [4]) was “No binding” in each case. Moreover, the “binding to human MET” value in the test with human MET (hMET-His) [3] is given as “showed binding affinity”. Besides, the “binding to dog MET” value with dog MET (dMET-His) is “no binding affinity”. Moreover, the “Positive Population” value in the test on HCC827 cells was determined as 0.63%; with NCI-H292 cells it was 2.32%. In addition, the “binding to monkey MET” value in the test with monkey MET (fasMET-His) [5] is “showed binding affinity”.

The record behind these values is patent US20250382373A1, “ANTI-EGFR/MET ANTIBODIES AND USES THEREOF” (Biocytogen Pharmaceuticals (Beijing) Co., Ltd., priority 2022, published 2025).
